{"source": "patent US8206920B2", "about": "“Diagnostic assay for the specific treatment of acute myeloid leukemia” (priority 2007, dated 2012)", "key": {"[1]": {"test_system": "ND13 MN1 cells", "assay": "Proliferation of cell cultures of transduced ND13 cells expressing MN1 with ATRA (FIG. 3)", "format": "cell-based, mouse", "conditions": "0.1 μM or 1 μM ATRA, up to 96 h", "excerpt": "(§1) The expression vector encoding GFP contained to the GFP gene under control of the spleen focus-forming virus promoter, integrated into the vector pSF91 (described in detail in Hildinger et al., J. Virol. 73, 4083-4089 (1999)). The MN1 expression vector contained the human MN1 gene under the control of the same promoter in the same vector backbone."}, "[2]": {"test_system": "ND13 GFP cells", "assay": "Proliferation of cell cultures of transduced ND13 cells expressing GFP with ATRA (FIG. 3)", "format": "cell-based, mouse", "conditions": "0.1 μM or 1 μM ATRA, p=0.026 at 24 hours, p<0.001 at 48, 72 and 96 h", "excerpt": "as §1"}}, "data": [{"smiles": "CC1=C(/C=C/C(C)=C/C=C/C(C)=C/C(=O)O)C(C)(C)CCC1", "note": "[ATRA, all-trans retinoic acid]", "values": [{"measurement": "proliferation (cell numbers)", "setting": "[1]", "value": "no significant reduction of proliferation"}, {"measurement": "proliferation (cell numbers)", "setting": "[2]", "value": "significant reduction of proliferation"}]}]}
